The values below are quoted from earlier work in patent publication US20240415880A1, “Treatment of Breast and Other Cancers Using Zinc Chloride Instead of Radiation” (priority 2023, published 2024).

In data set [1] the test system is locally advanced breast cancer tumors. The conditions noted are these: case presentations.
Data set [2] has as its system cancers of the mouth, accessory nasal sinuses, larynx, parotid and other salivary glands, anal region, vulva and accessible sarcomas.
The subject of the next data set is advanced melanomas. The conditions noted are these: 103 consecutive advanced melanomas; zinc chloride combined with surgery.

On to `[Cl-].[Cl-].[Zn+2]` [zinc chloride, Zinc chloride], for which, in data set [1], the “healing of locally advanced breast cancer tumors” value is on record as “remarkable healing”. In addition, in data set [2], the “treatment outcome of cancers” value is on record as “successfully treated”. In addition, the “improvement in cure rates over conventional surgery of melanomas” value in the data set on advanced melanomas is “significant and statistical (p=0.003) improvement”.
